In PubChem BioAssay AID330 (DTP/NCI, 2004):
Several values for one entry are separate records, joined by “and”; a condition that tells them apart may be missing. Equal entries are not always repeated. Toxic doses and inconclusive results are not listed.

Tested on: P388 leukemia ip, CD2F1 mice, survival T/C
Assay: NCI In Vivo Anticancer Drug Screen. Data for tumor model P388 Leukemia (intraperitoneal) in CD2F1 (CDF1) mice
Settings: endpoint: median survival time, higher = longer survival
Procedure, shortened: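 Mice carrying the transplanted tumor received test compound or vehicle. Survival was recorded in each group, and the value is the treated-group measurement divided by that of the vehicle-treated control group.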

[1] = dose: 100.0 mg/kg/injection, schedule: Q01DX009 (ip), vehicle: saline with Tween-80
[2] = dose: 200.0 mg/kg/injection, schedule: Q01DX009 (ip), vehicle: saline with Tween-80
[3] = dose: 400.0 mg/kg/injection, schedule: Q01DX009 (ip), vehicle: saline with Tween-80

**Q.** Which results are given for COC(=O)CCC1=C(C)c2cc3cc(C)c(cc4cc(C)c(cc5nc(cc1n2)C(CCC(=O)OC)=C5C)[nH]4)[nH]3?
**A.** T/C (dose: 0.75 mg/kg/injection, schedule: Q01DX005 (ip), vehicle: saline with Tween-80): 96 % of control; T/C (dose: 1.5 mg/kg/injection, schedule: Q01DX005 (ip), vehicle: saline with Tween-80): 98 % of control; T/C (dose: 3.0 mg/kg/injection, schedule: Q01DX005 (ip), vehicle: saline with Tween-80): 91 % of control; T/C (dose: 3.12 mg/kg/injection, schedule: Q01DX005 (ip), vehicle: saline with Tween-80): 90 % of control

**Q.** For CCC[CH2][Sn]([CH2]CCC)([S]/C(C#N)=N/N=C/c1ccc(N(C)C)cc1)[S]/C(C#N)=N/N=C/c1ccc(N(C)C)cc1, which T/C (dose: 7.5 mg/kg/injection, schedule: Q01DX005 (ip), vehicle: saline with Tween-80) is on record?
**A.** Its T/C is 117 % of control.

**Q.** Which results are given for N#CC1=C(O)/C(=C\C=C\c2ccccc2)N(C(=O)c2ccccc2)C1=N?
**A.** T/C (dose: 60.0 mg/kg/injection, schedule: Q01DX005 (ip), vehicle: saline with Tween-80): 105 % of control; T/C (dose: 120.0 mg/kg/injection, schedule: Q01DX005 (ip), vehicle: saline with Tween-80): 100 % of control; T/C (dose: 240.0 mg/kg/injection, schedule: Q01DX005 (ip), vehicle: saline with Tween-80): 104 % of control

**Q.** With c1ccc(C2=NC3CCCCC3N=C2c2ccccc2)cc1 (centres undefined) as the compound, how does the T/C [1] read?
**A.** Its T/C is 100 % of control.

**Q.** What about the T/C [2] of the same compound?
**A.** Its T/C is 100 % of control.

**Q.** What about the T/C [3] of the same compound?
**A.** Its T/C is 100 % of control.

**Q.** CNC(=O)N(C)C(=O)c1ccncc1C(=O)N(C(=O)NC1CCCCC1)C1CCCCC1 was tested. Which T/C (dose: 50.0 mg/kg/injection, schedule: Q01DX005 (ip), vehicle: saline with Tween-80) did it give?
**A.** The T/C was 98 % of control.

**Q.** And the T/C (dose: 100.0 mg/kg/injection, schedule: Q01DX005 (ip), vehicle: saline with Tween-80)?
**A.** The T/C was 89 % of control.

**Q.** And the T/C (dose: 200.0 mg/kg/injection, schedule: Q01DX005 (ip), vehicle: saline with Tween-80)?
**A.** Its T/C is 89 % of control.

**Q.** Which T/C (dose: 12.5 mg/kg/injection, schedule: Q01DX009 (ip), vehicle: Klucel (hydroxypropylcellulose) (HPC)) does the source give for OC(CBr)C(O)C(O)C(O)CBr (centres undefined) here?
**A.** Its T/C is 106 % of control.

**Q.** And the T/C (dose: 36.0 mg/kg/injection, schedule: Q01DX005 (ip), vehicle: Klucel (hydroxypropylcellulose) (HPC))?
**A.** Its T/C is 107 % of control and 109 % of control.

**Q.** And the T/C (dose: 50.0 mg/kg/injection, schedule: Q01DX009 (ip), vehicle: Klucel (hydroxypropylcellulose) (HPC))?
**A.** Its T/C is 115 % of control.

**Q.** And the T/C (dose: 50.0 mg/kg/injection, schedule: Q01DX009 (ip), vehicle: distilled water + Tween-80)?
**A.** The T/C was 114 % of control.

**Q.** What about the T/C (dose: 50.0 mg/kg/injection, schedule: Q01DX009 (ip), vehicle: saline with Tween-80) of the same compound?
**A.** Its T/C is 107 % of control.

**Q.** And the T/C (dose: 50.0 mg/kg/injection, schedule: Q01DX009 (ip), vehicle: saline)?
**A.** The T/C was 96 % of control.

**Q.** What about the T/C (dose: 50.0 mg/kg/injection, schedule: Q01DX010 (ip), vehicle: saline) of the same compound?
**A.** Its T/C is 109 % of control.

**Q.** And the T/C (dose: 53.0 mg/kg/injection, schedule: Q01DX005 (ip), vehicle: Klucel (hydroxypropylcellulose) (HPC))?
**A.** Its T/C is 120 % of control.

**Q.** And the T/C (dose: 80.0 mg/kg/injection, schedule: Q01DX005 (ip), vehicle: Klucel (hydroxypropylcellulose) (HPC))?
**A.** Its T/C is 173 % of control.

**Q.** And the T/C (dose: 100.0 mg/kg/injection, schedule: Q01DX009 (ip), vehicle: distilled water + Tween-80)?
**A.** The T/C was 124 % of control.

**Q.** What about the T/C [1] of the same compound?
**A.** The T/C was 114 % of control.

**Q.** And the T/C (dose: 100.0 mg/kg/injection, schedule: Q01DX009 (ip), vehicle: saline)?
**A.** Its T/C is 123 % of control.

**Q.** And the T/C (dose: 100.0 mg/kg/injection, schedule: Q01DX010 (ip), vehicle: saline)?
**A.** Its T/C is 109 % of control.

**Q.** What about the T/C (dose: 120.0 mg/kg/injection, schedule: Q01DX005 (ip), vehicle: Klucel (hydroxypropylcellulose) (HPC)) of the same compound?
**A.** Its T/C is 170 % of control and 207 % of control.

**Q.** And the T/C (dose: 180.0 mg/kg/injection, schedule: Q01DX005 (ip), vehicle: Klucel (hydroxypropylcellulose) (HPC))?
**A.** Its T/C is 163 % of control and 181 % of control.

**Q.** And the T/C (dose: 200.0 mg/kg/injection, schedule: Q01DX009 (ip), vehicle: Klucel (hydroxypropylcellulose) (HPC))?
**A.** Its T/C is 107 % of control.

**Q.** What about the T/C (dose: 200.0 mg/kg/injection, schedule: Q01DX009 (ip), vehicle: distilled water + Tween-80) of the same compound?
**A.** The T/C was 122 % of control.

**Q.** What about the T/C [2] of the same compound?
**A.** The T/C was 113 % of control.

**Q.** What about the T/C (dose: 200.0 mg/kg/injection, schedule: Q01DX010 (ip), vehicle: saline) of the same compound?
**A.** Its T/C is 109 % of control.

**Q.** What about the T/C (dose: 200.0 mg/kg/injection, schedule: Q04DX003 (ip), vehicle: Klucel (hydroxypropylcellulose) (HPC)) of the same compound?
**A.** The T/C was 190 % of control.

**Q.** And the T/C (dose: 300.0 mg/kg/injection, schedule: Q04DX003 (ip), vehicle: Klucel (hydroxypropylcellulose) (HPC))?
**A.** The T/C was 200 % of control.

**Q.** And the T/C (dose: 400.0 mg/kg/injection, schedule: Q01DX009 (ip), vehicle: Klucel (hydroxypropylcellulose) (HPC))?
**A.** Its T/C is 93 % of control.

**Q.** And the T/C (dose: 400.0 mg/kg/injection, schedule: Q01DX009 (ip), vehicle: distilled water + Tween-80)?
**A.** Its T/C is 86 % of control.

**Q.** What about the T/C [3] of the same compound?
**A.** Its T/C is 117 % of control.

**Q.** What about the T/C (dose: 800.0 mg/kg/injection, schedule: Q01DX009 (ip), vehicle: saline with Tween-80) of the same compound?
**A.** The T/C was 120 % of control.
